Type in all cases: in vivo
Experiment [1] has as its system Ctenocephalides Felis. Briefly: Insecticidal test for Ctenocephalides felis, Test Example 1 (dry film in glass tube, 0.5 ml, Table A4). As to conditions: adults; for pest or weed control at 0.1 µg/mL: Ctenocephalides felis, concentration 0.1 μg/ml, after 24 hours of the exposure, in triplicate, read-out: death rate. As for the experimental part:
Insecticidal Test for Ctenocephalides Felis
0.5 ml of a solution of acetone, the active ingredient, prepared to the prescribed concentration was added dropwise to a glass tube with a flat bottom (internal diameter: 2.6 cm, bottom area: 5.3 cm^2, height: 12 cm), and the solvent was evaporated at room temperature to form a dry film of the agent on the bottom surface. About 10 adults of Ctenocephalides Felis per glass tube were added, and the adults were contact-exposed to the test compound. After 24 hours of the exposure, the conditions of the adults were examined and classified into “alive” and “dead (including a moribund condition)” to determine the death rate (in triplicate).
As the comparative compounds, the following Compounds (A), (B), and (C) disclosed in WO2009/080203, and fipronil were used.

In experiment [2] the test system is Ctenocephalides Felis. As to the kind of experiment: Insecticidal test for Ctenocephalides felis, Test Example 3 (dry film in glass tube, 0.96 ml, Table A5). As to conditions: adults of Ctenocephalides felis, after 24 hours of exposure, in triplicate. How it is done: Insecticidal Test for Ctenocephalides felis
0.96 ml of a solution of acetone, the active ingredient, prepared to the prescribed concentration was added dropwise to a glass tube with a flat bottom (internal diameter: 3.6 cm, height: 12 cm), and the solvent was evaporated at room temperature to form a dry film of the agent on the bottom surface. About 10 adults of Ctenocephalides felis per glass tube were added, and they were contact-exposed to the test compound. After 24 hours of the exposure, the conditions of the adults were examined and classified into “alive” and “dead (including a moribund condition)” to determine the death rate was determined (in triplicate).
As the comparative compounds, the following Compounds (D) and (E) disclosed in WO2009/080203, and fipronil were used.

Experiment [3] relates to Blattella germanica. Briefly: Pesticidal test against Blattella germanica (petri dish dry film). As to conditions: 24 h, concentration 100 ppm, female adults, examined after 1 day, 25° C., read-out: pesticidal rate. In outline:
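Acetone solution of test compound at a predetermined concentration dried as a film in a 9 cm petri dish; female adult cockroaches released onto it and kept at 25° C. Living and dead counted after 1 day; five insects per group, two replicates.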

The subject of experiment [4] is Rhipicephalus sanguineus. As to the kind of experiment: Insecticidal test for Rhipicephalus sanguineus (treated glass petri dish, Table A6). To be noted: adults of Rhipicephalus sanguineus, 18 hour exposure, examined after 48 hours, in single. How it is done: Insecticidal Test for Rhipicephalus sanguineus
0.5 ml of a solution of acetone, the active ingredient, prepared to the prescribed dose was added dropwise into a glass petri dish with a diameter of 10 cm, and the acetone was evaporated at room temperature. About 10 adults of Rhipicephalus sanguineus per dish were added, and the dish was covered by another glass petri dish that was treated with the active ingredient in the same manner described above. After 18 hour exposure to the test substance, the adults were transferred into a glass petri dish that was not treated with the active ingredient. After 48 hours of the exposure, the conditions of the adults were examined and classified into “alive” and “dead (including a moribund condition)” to determine the death rate (in single).
As the comparative compounds, said Compounds (B), (C), and (D), and the following Compound (F) disclosed in WO2009/080203, and fipronil were used.

In experiment [5] the test system is Adoxophyes honmai. Briefly: Pesticidal test against Adoxophyes honmai (artificial feed dip). As to conditions: 144 h, concentration 1 ppm, 2-stage larvae, examined after 6 days, 25° C., read-out: pesticidal rate. Put shortly: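 Thin artificial feed slices dipped 30 s in test solution at a predetermined concentration, air-dried, then offered to 2nd-stage larvae. Kept at 25° C; live and dead larvae counted after 6 days. Five larvae per group, two replicates.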

The test system of experiment [6] is Choristoneura magnanima. As to the kind of experiment: Pesticidal test against Choristoneura magnanima (artificial feed dip). To be noted: 144 h, concentration 1 ppm, 2-stage larvae, examined after 6 days, 25° C., read-out: pesticidal rate. In outline:
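Thin artificial feed slices dipped 30 s in compound solution at a set concentration, air-dried, then offered to 2nd-stage larvae held at 25° C. Living and dead larvae counted after 6 days; five larvae per group, two replicates.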

The subject of experiment [7] is Spodoptera litura. Briefly: Pesticidal test against Spodoptera litura (cabbage leaf dip). As to conditions: foliar, 144 h, concentration 1 ppm, 2-stage larvae, examined after 6 days, 25° C., read-out: pesticidal rate. In outline: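 Cabbage leaf pieces dipped 30 seconds in compound solution at a predetermined concentration and air-dried, then offered to second-stage larvae, five per group in two replicates. Held at 25° C. Living and dead larvae counted after 6 days.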

For experiment [8], the system named is Coptotermes formosanus. Briefly: Pesticidal test against Coptotermes formosanus (treated filter paper). To be noted: 120 h, concentration 30 ppm, examined after 5 days of treatment, 28° C., read-out: pesticidal rate. How it is done:
Pesticidal Test against Coptotermes formosanus
20 μl of an acetone solution in which a test compound had been prepared at a predetermined concentration was added dropwise to the filter paper having a diameter of […] included in a polypropylene cup, and air-dried, and then 20 μl of water was added thereto. Coptotermes formosanus was released and the cup was capped. They were left to stand in a thermostatic chamber at 28° C., and the numbers of the living pests and the dead pests were examined after 5 days of treatment. The test was carried out with ten larvae per group in two replicates.

The subject of experiment [9] is Plutella xylostella. Briefly: Pesticidal test against Plutella xylostella (cabbage leaf dip). As to conditions: foliar, 144 h, concentration 1 ppm, 2-stage larvae, examined after 6 days, 25° C., read-out: pesticidal rate. In outline:
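Cabbage leaf pieces dipped 30 s in test solution at a predetermined concentration, air-dried, then offered to 2nd-instar larvae, five per group in duplicate. Held at 25° C; living and dead larvae counted after 6 days.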

A value given as a limit tells only on which side of the number the result lay.

Regarding `CN(C(=O)c1ccc(F)cc1)c1cccc(C(=O)Nc2c(I)cc(C(F)(C(F)(F)F)C(F)(F)F)cc2C(F)(F)F)c1F` [7-1733, 2-fluoro-3-(4-fluoro-N-methylbenzamide)-N-(2-iodo-4-(perfluoropropan-2-yl)-6-(trifluoromethyl)phenyl)benzamide], in experiment [1], the pest or weed control at 0.1 µg/mL stood at 100%. The death rate in [2] (0.03 μg/ml) is 21.1%; in experiment [2] (0.1 μg/ml) it was 91.6%; in [4] (0.0431 mg/m^2), 0.0%; in experiment [4] (0.0861 mg/m^2), 80.0%; in experiment [4] (0.172 mg/m^2), 100.0%. Also, the pest or weed control at 100 ppm in [3] was ≥ 70%. Further, the pest or weed control at 1 ppm in experiment [5], in [6], in experiment [7] and in experiment [9] was ≥ 70% in each case. Further, in experiment [8], the pest or weed control at 30 ppm is ≥ 70%.

For `CN(C(=O)c1ccccc1)c1cccc(C(=O)Nc2c(Br)cc(C(F)(C(F)(F)F)C(F)(F)F)cc2C(F)(F)F)c1F` [7-1574, N-(2-bromo-4-(perfluoropropan-2-yl)-6-(trifluoromethyl)phenyl)-2-fluoro-3-(N-methylbenzamide)benzamide], the pest or weed control at 0.1 µg/mL in [1] was found to be 100%. Moreover, the “speed of effect as compared with the fipronil” value in [1] (compared with fipronil) is listed as “immediate effect”. The death rate worked out at 72.0% in experiment [2] (0.03 μg/ml); 98.9% in experiment [2] (0.1 μg/ml); 10.0% in experiment [4] (0.0431 mg/m^2); 100.0% in experiment [4] (0.0861 mg/m^2); 100.0% in [4] (0.172 mg/m^2). Also, the pest or weed control at 100 ppm in experiment [3] was ≥ 70%. For the same molecule, the pest or weed control at 1 ppm in [5], in experiment [6], in [7] and in [9] was ≥ 70% each time. For the same molecule, in [8], the pest or weed control at 30 ppm is ≥ 70%.
